Article PMC7822874, “Chemoprotective antimalarials identified through quantitative high-throughput screening of Plasmodium blood and liver stage parasites” (Scientific Reports, 2021)
“And” between values parts separate entries of the source, which are not always exact repeats. Identical values can stand only once. Like-named read-outs stand apart in the source and are kept apart here.

How the values were obtained:
in vitro [1] = conditions: human, hepg2-a16-cd81egfp cells
[2] = tested on: T1, Plasmodium falciparum Dd2-attB (parental line), asexual blood stages; assay: microbe, parasite or virus in culture; set-up: replicate k of 3 (each line is one of three independent assays; the three lines of one compound and parasite line follow each other); conditions: n = 1; for Individual replicates / Log AC50 (M): 72 h
T1 construct: Dd2-attB, the isogenic parental line
How it was run: (§1)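 Three independent runs, compound subset only; parental vs ScDHODH line compared by two-sided Student's t-test.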

[3] = tested on: T2, Plasmodium falciparum Dd2-attB-ScDHODH (transgenic line expressing yeast DHODH), asexual blood stages; assay: organism not typed; set-up: replicate k of 3 (each line is one of three independent assays; the three lines of one compound and parasite line follow each other); conditions: 72 h, n = 1; for AC50: read-out: Individual replicates / Log AC50 (converted)
T2 construct: Dd2-attB-ScDHODH, the transgenic line that expresses yeast DHODH
How it was run: as §1

[4] = tested on: Plasmodium falciparum Dd2 asexual blood stage parasites; assay: microbe, parasite or virus in culture; set-up: species or system Plasmodium falciparum Dd2 in human erythrocytes; single determination (one 11-point concentration-response curve); conditions: Plasmodium falciparum, DD2, Erythrocyte, 72 h; read-out: AC50
in vitro [5] = conditions: human, HepG2-A16-CD81EGFP cells, uninfected
HepG2-A16-CD81EGFP cells = conditions: average of 2 wells, repeat 2
[6] = tested on: P. berghei-ANKA-GFP-LucCON liver stage parasites in HepG2-A16-CD81EGFP cells; assay: P. berghei liver stage Pb-Luc assay, Method 1 (UCSD, 1536-well); assay type: cell-based, Plasmodium berghei; conditions: for activity at 1 µM / activity at 3 µM: 48 h, average of 2 wells, 1536-well plate; for activity at 1 µM: nominal 1 uM (10 mM stock), […] for 15 mM, 1.2 uM for 12 mM, 2 uM for 20 mM stock; for activity at 3 µM: nominal 3 uM (10 mM stock), 4.5 uM for 15 mM, 3.6 uM for 12 mM, 6 uM for 20 mM stock

Row | Structure (SMILES) | viability at 3 µM (in vitro [1]; % viability) [%] | other results
1 | COc1cc(OC)c(NC2=CC(=O)C(=O)c3ccccc32)cc1Cl [MLS001198657] | 62 | –
2 | Oc1ccc(Br)cc1CN1CCN(c2ccccc2)CC1 [MLS000106609] | – | viability at 3 µM (in vitro [1]): 99.8%
3 | Cc1cc(C)[n+](C)n1CC(O)Cn1c2ccccc2c2ccccc21 (centres unmarked) [MLS000711524] | 104 | –
4 | Cc1noc(C)c1CSc1nc2sc3c(c2c(=O)n1C)CCCC3 [MLS000564913] | 89.9 | –
5 | Cc1ccc(-c2cc3c(nn2)-c2ccccc2C3=O)cc1 [MLS000104226] | 76.2 | –
6 | Clc1ccc2c(N/N=C/c3ccc(Br)cc3)ccnc2c1 [MLS000589586] | 104 | –
7 | Cc1cc(Nc2cccc(Cl)c2)nc(NCc2ccccc2)n1 [MLS000591844] | 80.9 | –
8 | Clc1ccccc1C(c1ccccc1)(c1ccccc1)n1ccnc1 [NCGC00015251] | 99.7 | –
9 | COC(=O)C1=CN(Cc2ccc(OC)cc2)C=C(C(=O)OC)C1c1cc(OC)c(OC)c(OC)c1 [MLS001197127] | 105 | –
10 | CC(C)CCN(CCC(C)C)CC(O)Cn1c2ccccc2c(=O)c2ccccc21 (centres unmarked) [MLS001030199] | 88.6 | –
11 | Cc1ccc(C(=O)Nc2nc(-c3ccccn3)cs2)cc1[S+](=O)([O-])N1CCOCC1 [NCGC00345210] | 29.5 | –
12 | CCN1CCN(Cc2ccc(NC(=O)c3cc(NC(=O)c4cc5cccc(OC)c5o4)cc(OC)c3)cc2C(F)(F)F)CC1 [MLS000911573] | 94.8 | –
13 | O=C(O)c1cc(-c2ccccc2)cc(-c2ccccc2)[n+]1Cc1ccccc1 [MLS001240915] | 98.5 | –
14 | COc1cccc2sc(N3CCN(C(=O)c4ccc([N+](=O)[O-])o4)CC3)nc12 [MLS001234267] | 93.6 | –
15 | O=C(Nc1ccncc1)Nc1cccc(Cl)c1Cl [MLS001224778] | 96.5 | –
16 | Cc1cccc(Nc2cc(C)c3c(O)cccc3n2)c1C [MLS000586980] | 88.1 | –
17 | c1ccc(Nc2cc3c(cn2)CN(Cc2ccc4[nH]ccc4c2)CCN3)cc1 [NCGC00411105] | 49.4 | –
18 | COc1cc(Cl)c(NC2=CC(=O)C(=O)c3ccccc32)c(OC)c1 [MLS001360325] | 65.1 | –
19 | CCN(CC)C1=NC(=[N+](CC)CC)c2ccccc21.[O-][Cl+3]([O-])([O-])O [MLS000565348] | 83.4 | –
20 | N#Cc1cc(C#N)c(N2CCN(c3cccc(Cl)n3)CC2)nc1N [MLS000325470] | 99.6 | –
21 | O=C(CCCCCCC(=O)Nc1ccccc1)NO [NCGC00168085] | 45.6 | –
22 | O=C(Nc1ncccc1O)c1ccc(S(=O)(=O)Nc2ccccc2)cc1 [MLS001099437] | 94.2 | –
23 | C/C(=N\Nc1nc(-c2ccccc2O)nc2ccccc12)c1ccccc1 [MLS000714167] | 93.6 | –

Row | Structure (SMILES) | viability at 3 µM (in vitro [1]; % viability) [%] | other results
24 | CCn1cnc2c(Nc3cc(F)cc(F)c3)nc(C#N)nc21 [NCGC00181918] | 79.4 | –
25 | CCN1CCN(Cc2ccc(NC(=O)c3ccc(C)c(NC(=O)c4cc(-c5ccc(Br)cc5)[nH]n4)c3)cc2C(F)(F)F)CC1 [MLS000911560] | 99 | –
26 | OCC[n+]1ccc(/C=C/c2c[nH]c3ccccc23)cc1 [MLS000585200] | 90.7 | –
27 | CCOC(=O)c1c(CN(C)C)n(-c2ccc(C)cc2)c2cc(Br)c(O)cc12 [MLS000705141] | 97.3 | –
28 | O=C1c2ccccc2CCc2ccc(B(O)O)cc21 [NCGC00183917] | 82.4 | –
29 | CCCCN(C(=O)c1cccc(S(=O)(=O)N(C)c2ccc(C)cc2)c1)c1c(N)n(CCCC)c(=O)[nH]c1=O [MLS001128188] | 91.7 | –
30 | O=C(NCc1ccccc1)c1onc(CSc2nc3ccccc3[nH]2)c1C(=O)NCc1ccccc1 [MLS000561090] | 105 | –
31 | CCOC(=O)C1CCN(Cc2cc(Cl)c3ccccc3c2O)CC1 [MLS001171913] | 87.1 | –
32 | COc1ccccc1Nc1cnc2ccc(-c3ccc(OC)c(OC)c3)nn12 [NCGC00412573] | 82.7 | –
33 | Cc1ccc(NC(=O)N(Cc2ccc3c(c2)OCO3)Cc2cc3cc4c(cc3[nH]c2=O)OCCO4)cc1 [MLS000033889] | 101 | –
34 | COc1cc(NC(=O)c2cc([N+](=O)[O-])ccc2NC(=O)CNC2CCCCC2C)cc(OC)c1 (centres unmarked) [MLS000950459] | 90.2 | –
35 | N#Cc1ccc(NC(=O)Nc2ccc(Cl)cc2)cc1 [MLS000104525] | 77.8 | –
36 | CC(C)N1CC=C(c2c[nH]c3ccccc23)CC1 [MLS000093714] | 93.1 | –
37 | Nc1nonc1-n1nnc(C(=O)N/N=C/c2ccc(Cl)cc2)c1-c1ccc2c(c1)OCO2 [MLS001142698] | 104 | –
38 | COC(=O)C1=C(C)NC(C)=C(C(=O)OCCCN2CCC(c3ccccc3)(c3ccccc3)CC2)C1c1cccc([N+](=O)[O-])c1 (centres unmarked) [NCGC00163135] | – | viability at 3 µM (in vitro [1]): 81%
39 | COc1ccc(C2Sc3ccccc3N=C3C2=C(O)c2ccccc23)c(OC)c1OC (centres unmarked) [NCGC00108825] | 43.7 | –
40 | CC(C)c1ccc(CC(=O)N2CCCc3ncc(C(=O)Nc4cccnc4)cc32)cc1 [NCGC00420003] | 45.1 | –
41 | O=C(c1ccc([N+](=O)[O-])o1)N1CCN(c2nc3c(Cl)cccc3s2)CC1 [MLS001234208] | 90.1 | –
42 | Oc1cccc(Nc2nc(NCC3CCCO3)c3ccccc3n2)c1 (centres unmarked) [MLS000026845] | 95.5 | –
43 | Cc1cc(C)cc(C(=O)Nc2ccc3c(N4CCCC4)ncnc3c2)c1 [NCGC00425487] | 31.8 | –
44 | OC(c1ccc(Cl)cc1)C(CN1CCOCC1)c1ccccc1 (centres unmarked) [MLS001173582] | 99.6 | –
45 | Oc1ccc(CNc2ccc(C(F)(F)F)cc2Cl)c2cccnc12 [NCGC00183375-01] | – | Individual replicates / Log AC50 (M) [2]: -5.2986 Log AC50 (M) and -5.3486 Log AC50 (M); AC50 ([2]; Plasmodium falciparum, DD2, 72 h, read-out: Individual replicates / Log AC50 (converted)): 5030 nM; Individual replicates / Log AC50 (M) [3]: -5.2486 Log AC50 (M) and -5.0986 Log AC50 (M); AC50 [3]: 5030 nM; AC50 [4]: 10600 nM
46 | CCCN1C(CC(C)C)=N[S+](=O)([O-])c2cc(NC(=O)c3cccs3)ccc21 [NCGC00473217-01] | – | Individual replicates / Log AC50 (M) [2]: -7.2986 Log AC50 (M) and -6.9486 Log AC50 (M) and -6.9986 Log AC50 (M); viability at 48 h, 1 µM (in vitro [5]): 105%; viability at 48 h, 3 µM (in vitro [5]): 106%; Individual replicates / Log AC50 (M) [3]: -6.2986 Log AC50 (M); AC50 [3]: 710 nM; HepG2 viability signal, 1 uM, repeat 2 (HepG2-A16-CD81EGFP cells; nominal 1 uM (10 mM stock), […] for 15 mM, 1.2 uM for 12 mM, 2 uM for 20 mM stock): 104.11%; HepG2 viability signal, 3 uM, repeat 2 (HepG2-A16-CD81EGFP cells; nominal 3 uM (10 mM stock), 4.5 uM for 15 mM, 3.6 uM for 12 mM, 6 uM for 20 mM stock): 105.41%; Max Resp (signal direction of the dose response) ([6]; Method 1, Decrease = decreasing P. berghei viability with dose, Increase = increasing signal, Inactive = no dose response): Decrease; AC50 ([6]; Method 1, Hill fit, 50% of maximum activity response, read-out: AC50): 3.16 nM; Log AC50 (M) ([6]; Method 1, log10 of molar AC50 from Hill fit): -8.500 M; activity at 1 µM ([6]; Plasmodium berghei, repeat 1, read-out: Pb-Luc signal, 1 uM, repeat 1): 8.62%; activity at 1 µM ([6]; Plasmodium berghei, repeat 2, read-out: Pb-Luc signal, 1 uM, repeat 2): 7.89%; activity at 1 µM ([6]; Plasmodium berghei, repeat 3, read-out: Pb-Luc signal, 1 uM, repeat 3): 4.31%; activity at 3 µM ([6]; Plasmodium berghei, repeat 1, read-out: Pb-Luc signal, 3 uM, repeat 1): 2.42%; activity at 3 µM ([6]; Plasmodium berghei, repeat 2, read-out: Pb-Luc signal, 3 uM, repeat 2): 3.74%; activity at 3 µM ([6]; Plasmodium berghei, repeat 3, read-out: Pb-Luc signal, 3 uM, repeat 3): 3.33%; AC50 ([6]; Plasmodium berghei, Method 1, Hill fit, 50% of maximum activity response, read-out: AC50): 2.82 nM; AC50 ([6]; Plasmodium berghei, Method 1, log10 of molar AC50 from Hill fit, read-out: Log AC50 (converted)): 2.82 nM; AC50 [4]: 335 nM
